The values below come from patent US20250121083A1, “Tumor-Associated Calcium Signal Transducer 2 (TACSTD2) Antibody-Maytansine Conjugates and Methods of Use Thereof” (priority 2021, published 2025).

Data set [1] concerns TACSTD2-positive cell lines Bx-PC-3, NCI-H87, NCI-H292, and MDA-MB-468. In words: In vitro cytotoxicity, Cell Titer-Glo, 5 d. In kind it is cell-based. The conditions noted are these: 120 h, range over the four tested cell lines, read-out: IC50 concentrations. How it is done: The TACSTD2-positive cell lines, Bx-PC-3, […], NCI-H292, and MDA-MB-468 were obtained from the ATCC cell bank. The cells were maintained in RPMI 1640 or DMEM medium (Cellgro) supplemented with 10 or 20% fetal bovine serum (Invitrogen) and Glutamax (Invitrogen). 24 h prior to plating, cells were passaged to ensure log-phase growth. On the day of plating, 5000 cells/well were seeded onto 96-well plates in 100 μL normal growth medium supplemented with 10 IU penicillin and 10 μg/mL streptomycin (Cellgro). […] After 5 d, 100 μL/well of Cell Titer-Glo reagent (Promega) was added, and luminescence was measured using a Molecular Devices SpectraMax M5 plate reader. GraphPad Prism software was used for data analysis.
A general note: ATP-based viability assays read luminescence as a measure of living cells.

Data set [2] relates to MDA-MB-468 cells. The data set can be described thus: In vitro cytotoxicity, Cell Titer-Glo, 8 d. In kind it is cell-based. The conditions noted are these: Homo sapiens, 192 h. On the procedure: Methods: The TACSTD2-positive cell line, MDA-MB-468 was obtained from the ATCC cell bank. The cells were maintained in DMEM medium supplemented with 10% fetal bovine serum (Invitrogen), 2× Glutamax (Invitrogen) and 1× antibiotic/antimycotic (Corning). On the day of plating, 1500 cells/well were seeded onto 96-well plates in 100 μL normal growth medium. Cells were treated at various concentrations with 20 μL of diluted analytes (sacituzumab compound 21 ADC or free belotecan payload), and the plates were incubated at 37° C. in an atmosphere of 5% CO2. After 8 d, 100 μL/well of Cell Titer-Glo reagent (Promega) was added, and luminescence was measured using a Molecular Devices SpectraMax M5 plate reader. GraphPad Prism software was used for data analysis.

The subject of data set [3] is NCI-H292 xenograft model. The data set can be described thus: NCI-H292 xenograft study. The data set is classed as in vivo, female SCID Beige mice. The settings on record: 26 mg/kg x 4 doses, i.v.; 8 mice per group. An excerpt: Methods: For the NCI-H292 study, female SCID Beige mice (8 per group) were inoculated subcutaneously with 5 million NCI-H292 cells in PBS. Treatment began when the tumors reached an average of 116 mm^3. For the NCI-N87 study, female BALB/c nude mice (8 per group) were inoculated subcutaneously with 10 million NCI-N87 cells in a 1:1 solution of PBS:Matrigel. Treatment began when the tumors reached an average of 221 mm^3. […] Two general dosing schedules were used: either test articles were delivered once every 3 wk (arrowheads) or they were delivered two times in a three week period, on days 0 and 7 (arrows). The dosing cycles were repeated twice, so that animals in the first dosing group received a total of 2 doses, while the animals in the second dosing group received a total of 4 doses. The animals were monitored twice weekly for body weight and tumor size. Animals were euthanized when tumors reached 2000 mm^3.
For the results shown in FIG. 8, CR refers to an individual mouse that has no detectable tumor volume, which could be for only a short time, for example, one observation, or it could be for a longer period. […] The lines in FIG. 8 show the mean tumor volume across all mice in a group. Because 8 mice were used per group, the line shown in FIG. 8 might not go to zero; however, there could still be individual animals that attained CR.

For data set [4] the following is noted: cited from earlier work.

As to `COc1cc2cc(c1Cl)N(C)C(=O)C[C@H](OC(=O)[C@H](C)N(C)C(C)=O)[C@]1(C)O[C@H]1[C@H](C)[C@@H]1C[C@@](O)(NC(=O)O1)[C@H](OC)/C=C/C=C(\C)C2` [free maytansine, maytansine], the IC50 in data set [1] was 0.05 to 0.23 nM; in data set [2], 0.77 nM.
Turning to Trodelvy [reference compound], the “complete responses (CRs)” value in data set [3] was 1/8.

B1: DS-1062: Daiichi Sankyo's TROP-2-targeted ADC (conjugate, chains of the INN, looked up)
VH: QVQLVQSGAEVKKPGASVKVSCKASGYTFTTAGMQWVRQAPGQGLEWMGWINTHSGVPKYAEDFKGRVTISADTSTSTAYLQLSSLKSEDTAVYYCARSGFGSSYWYFDVWGQGTLVTVSS
VL: DIQMTQSPSSLSASVGDRVTITCKASQDVSTAVAWYQQKPGKAPKLLIYSASYRYTGVPSRFSGSGSGTDFTLTISSLQPEDFAVYYCQQHYITPLTFGQGTKLEIK
modifications: deruxtecan payload
notes: Daiichi Sankyo's TROP-2-targeted ADC
For the molecule B1, the intestinal toxicity result in data set [4] (10 mg/kg) is reported as “toxicity findings in the intestines”. Moreover, the “safety signals in healthy tissues that express TROP-2” value in data set [4] (>10 mg/kg, skin, cornea, oral, esophageal, vaginal mucosa) is reported as “key adverse safety signals (including necrosis)”.
